Experimental data from US12226387B2, “Compounds for use in cancer cachexia” (priority 2018, dated 2025).
Read-outs that look alike come from different tables or passages of the source.

Legend:
C26 tumour-bearing mice [1] = experiment: Survival experiment in C26 tumour-bearing mice on ketone-ester diet; type: in vivo, Male Balb/c mice; conditions: ketone groups (KETrest+KETex) vs control groups, 4.5% ketone ester diet, p<0.01
Method: Animal housing and husbandry—Male Balb/c mice were obtained at 11 weeks of age and housed in polycarbonate cages on a 6:00 am to 6:00 pm light cycle under controlled room temperature (21-23° C.) and humidity (40-60%). Mice were individually housed to allow assessment of individual energy intake and physical activity parameters. Cages contained spruce particles (Lignocel® BK 8/15) bedding, and were changed every three weeks. Enrichment was provided by two cotton pellets, which were replaced during cage changing. Mice received one wooden stick to allow correct wearing off of their teeth while on the liquid diets. Solid food was provided in a recess of the metal wire lid at the top of the cage, whilst liquid diets were provided on a daily basis by means of feeding tubes (Bio-Serv™, catalog #14-726-518). Water was provided by a centralized system with a metal dispenser extending into the cage. All procedures were approved by the Animal Ethics Committee of KU Leuven, Belgium (P093/2017). […]
General study protocol and dietary interventions—Mice were individually housed and received ad libitum access to standard chow (Ssniff® R/M-H, Soest, Germany) prior to the start of the study. Food intake was registered and body weight was measured daily for 5 days to assess their normal rate of food intake. […]

C26 tumour-bearing mice [2] = experiment: Food intake and body weight of C26 tumour-bearing mice; type: in vivo, Male Balb/c mice; conditions: all experimental groups
Method: General study protocol and dietary interventions—Mice were individually housed and received ad libitum access to standard chow (Ssniff® R/M-H, Soest, Germany) prior to the start of the study. Food intake was registered and body weight was measured daily for 5 days to assess their normal rate of food intake. Following this baseline follow-up period, the mice were matched for body weight and food intake where after they were randomly assigned to five experimental groups: i) C26 tumour-bearing mice at rest on control diet (CONrest), ii) C26-bearing mice at rest on ketone diet (KETrest), iii) C26-bearing mice performing voluntary wheel running (WR) on control diet (CONex), iv) C26-bearing mice performing WR on ketone diet (KETex), and v) healthy mice at rest on control diet (WT). Mice were habituated to their experimental diet by a step-wise change of their food supply.
During the first three days, the mice received both their experimental liquid diet (without the addition of ketones) as well as standard chow. From day 3 to 6, mice received only their experimental liquid diets (i.e. 0% KET or CON diet). […]
Body weight, food intake and wheel running parameters—Body weight was measured every 3 days during the food training period. After tumour induction, body weight was measured at 4-day intervals. Food intake and wheel running parameters were measured daily.

[3] = Blood metabolite concentrations (βHB, glucose), 1-hr postprandial; type: in vivo, Male Balb/c mice; conditions: at all times
Method: Blood metabolite concentrations-Blood parameters were measured 1-hr postprandial, every 3 days during the food habituation period, and every 4 days from the day of tumour induction. Blood βHB and glucose levels were measured using the Glucomen Lx plus-meter (Menarini Diagnostics, Firenze, Italy) with Lx β-ketone or Lx glucose strips, respectively. The detection limits for p-hydroxybutyrate were 0.1 to 8.0 millimolar (mM). Blood lactate concentrations were assessed using the Lactate-[…] monitoring system (Arkray, Kyoto, Japan). Measurements were performed according to the manufacturer's instructions.

C26 tumour-bearing mice [4] = experiment: Voluntary wheel running activity; type: in vivo, Male Balb/c mice; conditions: KETex, wheel running on ketone ester diet, mean±SEM
Method: Tumour induction and exercise intervention—On day 12, tumour-xenografts were induced by interscapular injection of 5×10^5 murine colon carcinoma C26 cells dissolved in 100 μl of phosphate-buffered saline (PBS). C26 cell line was cultured in DMEM (Thermo Fisher Scientific, 41965-062) supplemented with 10% foetal bovine serum (FBS), 1% glutamine (Sigma G7513) and 1% penicillin and streptomycin. WT mice were injected with an identical volume of PBS. Twenty four hours before tumour inoculation, WR mice (CONex and KETex) received a running wheel to induce voluntary exercise, as previously reported in Coletti D et al;. Substrains of inbred mice differ in their physical activity as a behavior. Sci World J 2013: 1-7, 2013. Each wheel was supplied with a commercial cycling computer (2Cycle, 81488) to record physical activity parameters (i.e. running time, distance, and speed). Body weight, food intake and wheel running parameters—Body weight was measured every 3 days during the food training period. After tumour induction, body weight was measured at 4-day intervals. Food intake and wheel running parameters were measured daily. Statistical analysis—Data are presented as mean±SEM. […] Mice from the WT groups were not included in the 2-way ANOVA model, but were added as a reference. Differences in wheel running activity were assessed using an unpaired t-test. […]

[5] = tested on: murine colon carcinoma C26 cells; experiment: Tumour weights, C26 tumour-xenografts; type: in vivo, Male Balb/c mice; conditions: 16 days after C26 inoculation, KET mice, p<0.05 vs CON, mean±SEM
Method: Tumour induction and exercise intervention—On day 12, tumour-xenografts were induced by interscapular injection of 5×10^5 murine colon carcinoma C26 cells dissolved in 100 μl of phosphate-buffered saline (PBS). C26 cell line was cultured in DMEM (Thermo Fisher Scientific, 41965-062) supplemented with 10% foetal bovine serum (FBS), 1% glutamine (Sigma G7513) and 1% penicillin and streptomycin. WT mice were injected with an identical volume of PBS. Twenty four hours before tumour inoculation, WR mice (CONex and KETex) received a running wheel to induce voluntary exercise, as previously reported in Coletti D et al;. Substrains of inbred mice differ in their physical activity as a behavior. Sci World J 2013: 1-7, 2013. Each wheel was supplied with a commercial cycling computer (2Cycle, 81488) to record physical activity parameters (i.e. running time, distance, and speed). Behavioural testing and tissue collection experiment—In a second experiment, 9 mice were included in each experimental group and used for behavioural testing and tissue collection. Mice were euthanized 16 days following PBS or tumour cells inoculation. Twenty-four hours before sacrifice the running wheels were removed to eliminate potential acute effects of exercise on variables measured.

C26 tumour-bearing mice [6] = experiment: Muscle weights (TA, QUAD, GAS); type: in vivo, Male Balb/c mice
Description: Behavioural testing and tissue collection experiment—In a second experiment, 9 mice were included in each experimental group and used for behavioural testing and tissue collection. Mice were euthanized 16 days following PBS or tumour cells inoculation. Twenty-four hours before sacrifice the running wheels were removed to eliminate potential acute effects of exercise on variables measured.

C26 tumour-bearing mice [7] = experiment: Grip strength of forelimbs and hindlimbs; type: in vivo, Male Balb/c mice; conditions: day 16, KETrest & KETex vs CONrest & CONex, p<0.05
Method: Grip strength—Grip strength of both the forelimbs and the hindlimbs was evaluated, at baseline (day 5) and every 4 days starting at tumour induction, by means of a bar and a grid respectively, connected to an isometric force transducer (BIO-GS3 Grip Strength Test, BIOSEB, Pinellas Park, Florida). Mice were lifted by their tail and positioned to grasp the metal bar or grid, and were pulled horizontally until they could no longer hold the grip. Maximal force (g) was registered during five attempts for both the forelimbs and the hindlimbs. Performance was calculated as the average of the three best attempts. Between attempts the mice were returned to their home cage and given a rest period of 3 min.

M. soleus = experiment: Ex-vivo muscle contractile properties of M. soleus; type: in vivo, Male Balb/c mice; conditions: on average, KETrest & KETex vs CONrest & CONex, p<0.05
Method: Muscle contractile properties—Ex-vivo muscle contractile properties were assessed as described by Derave W et al; Skeletal muscle properties in a transgenic mouse model for amyotrophic lateral sclerosis: Effects of creatine treatment. Neurobiol Dis 13: 264-272, 2003 and Eijnde B O et al; Effect of muscle creatine content manipulation on contractile properties in mouse muscles. Muscle and Nerve 29: 428-435, 2004.
Mice were anesthetized by an intraperitoneal injection of ketamine-xylazine (10 mg/kg). After dissection of M. soleus and M. extensor digitorum longus (EDL) of both hindlimbs, muscles were mounted vertically on a force transducer (HSE, March-Hugstetten, Germany) and incubated in organ baths containing Krebs-Henseleit solution (118 mM NaCl, 25 mM NaHCO3, 5 mM KCl, 1 mM MgSO4, 1 mM KH2PO4, 2.5 mM CaCl2 and […]). […] Following recovery, resting length (L0) was determined with a micropositioner and an oscilloscope by stimulating the soleus and EDL tetanically for 350 ms at 80 Hz and 120 Hz, respectively, interspersed with 2-min rest intervals. […] Average maximal tension and specific tension (force corrected for muscle cross-sectional area) were calculated for both the twitch and tetanic stimulations. Cross-sectional area was determined by dividing the wet muscle mass by the product of resting muscle length (L0) and the density of mammalian skeletal muscle (1.06 g/cm^3).

[8] = Blood (R)-3-hydroxybutyrate after oral administration of ester
[9] = tested on: pancreatic cancer cachexia; conditions: high amounts of ketone salts; cited from earlier work
[10] = in vivo

Molecule: C[C@@H](O)CCOC(=O)C[C@@H](C)O [KET, (R)-3-hydroxybutyl-(R)-3-hydroxybutyrate]
- increase in mean survival time compared to control groups (C26 tumour-bearing mice [1]): +40%
- increase in median survival time compared to control groups (C26 tumour-bearing mice [1]): +17%
- Body weight over time (C26 tumour-bearing mice [2]): similarly decreased
- blood glucose levels compared with CON groups [3]: lower
- Av distance/day (C26 tumour-bearing mice [4]): 19.78 ± 1.36 km
- Av running speed (C26 tumour-bearing mice [4]): 2.94 ± 0.12 km/h
- tumour weights [5]: 204 ± 32 mg
- Tibialis anterior (TA) weight (C26 tumour-bearing mice [6]; KET, p<0.05 vs CON, mean±SEM): 41.6 ± 2.1 mg
- gastrocnemius (GAS) weights between the groups (C26 tumour-bearing mice [6]; mouse, in vivo): similar
- TA weight higher in KET compared with CON (C26 tumour-bearing mice [6]; on average): ~12%
- forelimb grip strength vs control groups (C26 tumour-bearing mice [7]): higher
- hindlimb grip strength vs control groups (C26 tumour-bearing mice [7]): higher
- Peak twitch force of M. soleus higher than in control groups (M. soleus): ~45%
- tetanic force of M. soleus higher than in control groups (M. soleus): ~29%
- level of uptake in the gut ([8]; consumption of a drink): surprisingly high
- circulating levels of (R)-3-hydroxybutyrate in the blood ([8]; in vivo): high
- period of raised (R)-3-hydroxybutyrate concentrations compared with ketone salts ([8]; in vivo): longer period

Molecule: CC(=O)CC(=O)[O-].[Li+] [lithium acetoacetate]
- muscle and body weight loss [9]: inhibition
- tumour growth [9]: Reduced

Molecule: CC(O)CC(=O)[O-].[Na+] (centres unmarked) [sodium hydroxybutyrate]
- muscle and body weight loss [9]: inhibition
- tumour growth [9]: Reduced

Molecule: (R)-3-hydroxybutyrate-glycerol partial ester
- circulating levels of (R)-3-hydroxybutyrate in the blood [10]: high
- level of uptake in the gut [10]: surprisingly high
